Source: patent US20240189309A1, “TYK2 INHIBITORS AND USES THEREOF” (Sudo Biosciences Limited, priority 2021, published 2024)

Key:
Type in all cases: cell-based
TYK2 Pseudokinase (JH2) [1] = biological target: T1, TYK2 Pseudokinase (JH2) (Homo sapiens, UniProt P29597); assay: HEK-Blue IL-23 reporter assay (SEAP) for profiling TYK2 pseudokinase (JH2) inhibition; design: HEK-Blue™ IL-23 and IFNα/β cells with a stably-integrated cytokine receptor and STAT3 or STAT1; endogenous in cells; host or cells: HEK-Blue IL-23 and HEK-Blue IFNα/β cells; settings: HEK-Blue IL-23 cells, 10 ng/mL human recombinant IL-23, SEAP reporter; read-out: IL23 (TYK2 inhibitory activity, IC50)
T1 sequence (P29597 whole entry): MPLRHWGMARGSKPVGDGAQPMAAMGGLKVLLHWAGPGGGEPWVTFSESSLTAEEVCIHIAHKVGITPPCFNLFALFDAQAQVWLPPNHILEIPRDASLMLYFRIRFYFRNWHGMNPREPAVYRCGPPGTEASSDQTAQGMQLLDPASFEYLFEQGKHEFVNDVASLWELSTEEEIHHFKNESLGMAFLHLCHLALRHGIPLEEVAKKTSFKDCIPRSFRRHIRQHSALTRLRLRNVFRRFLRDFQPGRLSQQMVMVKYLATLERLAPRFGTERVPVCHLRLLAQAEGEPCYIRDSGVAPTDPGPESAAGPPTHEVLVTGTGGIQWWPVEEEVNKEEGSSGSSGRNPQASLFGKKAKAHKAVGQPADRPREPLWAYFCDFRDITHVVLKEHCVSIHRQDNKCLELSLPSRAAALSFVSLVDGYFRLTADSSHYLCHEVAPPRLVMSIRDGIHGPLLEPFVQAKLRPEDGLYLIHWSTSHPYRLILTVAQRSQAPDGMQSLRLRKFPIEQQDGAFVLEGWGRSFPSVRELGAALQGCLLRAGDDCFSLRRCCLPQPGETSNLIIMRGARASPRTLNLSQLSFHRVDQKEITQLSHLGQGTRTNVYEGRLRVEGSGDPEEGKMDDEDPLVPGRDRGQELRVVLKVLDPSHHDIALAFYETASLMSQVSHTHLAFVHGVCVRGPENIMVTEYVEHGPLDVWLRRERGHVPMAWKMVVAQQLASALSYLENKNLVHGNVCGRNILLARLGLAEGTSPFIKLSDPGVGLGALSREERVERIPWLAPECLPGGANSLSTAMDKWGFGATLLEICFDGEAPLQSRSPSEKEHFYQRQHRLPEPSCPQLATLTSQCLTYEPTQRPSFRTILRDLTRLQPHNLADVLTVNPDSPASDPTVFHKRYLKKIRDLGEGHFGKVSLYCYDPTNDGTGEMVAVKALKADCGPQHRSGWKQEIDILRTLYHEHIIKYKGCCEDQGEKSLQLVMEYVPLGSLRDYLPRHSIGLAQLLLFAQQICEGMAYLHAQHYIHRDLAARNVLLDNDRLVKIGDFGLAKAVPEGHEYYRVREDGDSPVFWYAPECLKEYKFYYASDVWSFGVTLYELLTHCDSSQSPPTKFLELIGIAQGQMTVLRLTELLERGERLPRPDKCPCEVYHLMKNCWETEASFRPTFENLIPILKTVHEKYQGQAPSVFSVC
Method: (§1) Example B-1: HEK-Blue™ IL-23 and IFNα/β Reporter Assays for Profiling TYK2 Pseudokinase (JH2) Inhibition
(§2) HEK-Blue™ IL-23 and IFNα/β cells with a stably-integrated cytokine receptor and STAT3 or STAT1 express STAT-inducible secreted embryonic alkaline phosphatase (SEAP) reporter gene upon cytokine stimulation. These cells are plated in DMEM (Gibco) containing 10% heat-inactivated FBS (Gibco) and 100 U/mL PenStrep (Gibco) at 37° C. under 5% CO2 conditions for 20-22 hours. The cells are then pretreated with serially diluted test compounds for 60 min prior to stimulation with either 10 ng/mL human recombinant IL-23 (Miltenyl Biotech) or 1 ng/mL human recombinant IFNα (InvivoGen) for 22-24 hours for IL-23 or 16-18 h for IFNα. SEAP induction is measured using the QUANTI Blue™ Solution (InvivoGen) according to the manufacturer's instructions.

TYK2 Pseudokinase (JH2) [2] = biological target: T1, TYK2 Pseudokinase (JH2); assay: HEK-Blue IFNα/β reporter assay (SEAP) for profiling TYK2 pseudokinase (JH2) inhibition; settings: HEK-Blue IFNα/β cells, 1 ng/mL human recombinant IFNα, read-out: IFNα (TYK2 inhibitory activity, IC50)
Method: as §1, §2

[3] = system: HEK-Blue™ IL-2 reporter cells; assay: HEK-Blue IL-2 reporter assay (SEAP) for determining selectivity; settings: HEK-Blue IL-2 cells, 4 ng/mL human recombinant IL-2, SEAP reporter
Method: (§3) Example B-3: HEK-Blue™ IL-2 and IFNγ Reporter Assays for Determining Selectivity
(§4) HEK-Blue™ IL-2 and IFNγ reporter cells with a stably-integrated cytokine receptor and STAT5 or STAT1 express STAT-inducible secreted embryonic alkaline phosphatase (SEAP) reporter gene upon cytokine stimulation. These cells were plated in DMEM (Gibco) containing 10% heat-inactivated FBS (Gibco) and 100 U/mL PenStrep (Gibco) at 37° C. under 5% CO2 conditions for 20-22 hours. The cells were then pre-treated with serially diluted test compounds for 60 min prior to stimulation with either 4 ng/mL human recombinant IL-2 (Miltenyl Biotech) or 50 ng/mL human recombinant IFNγ (InvivoGen) for 24 hours. SEAP induction was measured using the QUANTI-Blue™ Solution (InvivoGen) according to the manufacturer's instructions.

[4] = system: HEK-Blue™ IFNγ reporter cells; assay: HEK-Blue IFNγ reporter assay (SEAP) for determining selectivity; settings: 50 ng/mL human recombinant IFNγ, read-out: IFN-γ (SEAP selectivity, IC50)
Method: as §3, §4

IC50 (TYK2 Pseudokinase (JH2) [1]) [nM] | IC50 (TYK2 Pseudokinase (JH2) [2]) [nM] | Structure (SMILES) | IC50 [3] [nM] | IC50 [4] [nM]
300 to 1000 | > 1000 | CNC(=O)c1nnc(Nc2ccc(F)cn2)cc1Nc1cccc2c1OCc1nnnn1-2 [Compound 4, 4-((4H-benzo[b]tetrazolo[1,5-d][1,4]oxazin-6-yl)amino)-6-((5-fluoropyridin-2-yl)amino)-N-methylpyridazine-3-carboxamide] |  | 
< 30 | < 30 | [2H]C([2H])([2H])NC(=O)c1nnc(NC(=O)C2CC2)cc1Nc1cccc2c1N(C)Cc1sc(C)nc1-2 [Compound 35, 6-(cyclopropanecarboxamido)-4-((2,5-dimethyl-4,5-dihydrothiazolo[5,4-c]quinolin-6-yl)amino)-N-(methyl-d3)pyridazine-3-carboxamide] | > 1000 | 
> 1000 | 300 to 1000 | [2H]C([2H])([2H])NC(=O)c1nnc(NC(=O)C2COC2)cc1Nc1cccc2c1N(C)Cc1nn(C)c(=O)n1-2 [Compound 19, 4-((2,5-dimethyl-1-oxo-1,2,4,5-tetrahydro-[1,2,4]triazolo[4,3-a]quinoxalin-6-yl)amino)-N-(methyl-d3)-6-(oxetane-3-carboxamido)pyridazine-3-carboxamide] |  | 
< 30 | 30 to 300 | [2H]C([2H])([2H])NC(=O)c1nnc(NC(=O)C2CC2)cc1Nc1cccc2c1N(C)C[C@H]1CCC(=O)N21 [Compound 38, (R)-6-(cyclopropanecarboxamido)-N-(methyl-d3)-4-((5-methyl-1-oxo-1,2,3,3a,4,5-hexahydropyrrolo[1,2-a]quinoxalin-6-yl)amino)pyridazine-3-carboxamide] | 300 to 1000 | 30 to 300
< 30 | 30 to 300 | [2H]C([2H])([2H])NC(=O)c1cnc(NC(=O)C2CC2)cc1Nc1nccc2c1N(C)Cc1nn(C)c(=O)n1-2 [Compound 21, 6-(cyclopropanecarboxamido)-4-((2,5-dimethyl-1-oxo-1,2,4,5-tetrahydropyrido[3,4-e][1,2,4]triazolo[4,3-a]pyrazin-6-yl)amino)-N-(methyl-d3)nicotinamide] | > 1000 | 300 to 1000
> 1000 | > 1000 | CNC(=O)c1nnc(Nc2ccc(F)cn2)cc1Nc1cccc2c1OCc1nn(C)c(=O)n1-2 [Compound 7, 6-((5-fluoropyridin-2-yl)amino)-N-methyl-4-((2-methyl-1-oxo-2,4-dihydro-1H-benzo[b][1,2,4]triazolo[4,3-d][1,4]oxazin-6-yl)amino)pyridazine-3-carboxamide] |  | 
< 30 | 30 to 300 | [2H]C([2H])([2H])NC(=O)c1nnc(NC(=O)C2CC2)cc1Nc1cccc2c1N(C)CC1CCC(=O)N21 (centres unmarked) [Compound 37, 6-(cyclopropanecarboxamido)-N-(methyl-d3)-4-((5-methyl-1-oxo-1,2,3,3a,4,5-hexahydropyrrolo[1,2-a]quinoxalin-6-yl)amino)pyridazine-3-carboxamide] | > 1000 | 300 to 1000
30 to 300 | 300 to 1000 | [2H]C([2H])([2H])NC(=O)c1nnc(NC(=O)C2CC2)cc1Nc1cccc2c1N(C)C[C@@H]1CCC(=O)N21 [Compound 39, (S)-6-(cyclopropanecarboxamido)-N-(methyl-d3)-4-((5-methyl-1-oxo-1,2,3,3a,4,5-hexahydropyrrolo[1,2-a]quinoxalin-6-yl)amino)pyridazine-3-carboxamide] |  | 
< 30 | 30 to 300 | [2H]C([2H])([2H])NC(=O)c1cnc(NC(=O)C2CC2)cc1Nc1cccc2c1N(C)Cc1nc(C)oc1-2 [Compound 23, 6-(cyclopropanecarboxamido)-4-((2,5-dimethyl-4,5-dihydrooxazolo[4,5-c]quinolin-6-yl)amino)-N-(methyl-d3)nicotinamide] | > 1000 | 30 to 300
300 to 1000 | > 1000 | CNC(=O)c1nnc(Nc2ccc(F)cn2)cc1Nc1cccc2c1OCc1c-2noc1C [Compound 1, 6-((5-fluoropyridin-2-yl)amino)-N-methyl-4-((3-methyl-4H-chromeno[4,3-c]isoxazol-6-yl)amino)pyridazine-3-carboxamide] |  | 
300 to 1000 | > 1000 | CNC(=O)c1nnc(NC(=O)C2CC2)cc1Nc1cccc2c1OCc1nn(C)c(=O)n1-2 [Compound 6, 6-(cyclopropanecarboxamido)-N-methyl-4-((2-methyl-1-oxo-2,4-dihydro-1H-benzo[b][1,2,4]triazolo[4,3-d][1,4]oxazin-6-yl)amino)pyridazine-3-carboxamide] |  | 
30 to 300 |  | CNC(=O)c1nnc(NC(=O)C2CC2)cc1Nc1cccc2c1OCc1c-2noc1C [Compound 3, 6-(cyclopropanecarboxamido)-N-methyl-4-((3-methyl-4H-chromeno[4,3-c]isoxazol-6-yl)amino)pyridazine-3-carboxamide] | > 1000 | > 1000
300 to 1000 | > 1000 | CNC(=O)c1nnc(NC(=O)C2CC2)cc1Nc1cccc2c1OCn1nnnc1-2 [Compound 5, 4-((5H-benzo[e]tetrazolo[1,5-c][1,3]oxazin-7-yl)amino)-6-(cyclopropanecarboxamido)-N-methylpyridazine-3-carboxamide] |  | 
> 1000 | > 1000 | [2H]C([2H])([2H])NC(=O)c1cnc(NC(=O)C2CC2)cc1Nc1cncc2c1N(C)Cc1nn(C)c(=O)n1-2 [Compound 13, 6-(cyclopropanecarboxamido)-4-((2,5-dimethyl-1-oxo-1,2,4,5-tetrahydropyrido[4,3-e][1,2,4]triazolo[4,3-a]pyrazin-6-yl)amino)-N-(methyl-d3)nicotinamide] |  | 
< 30 | < 30 | [2H]C([2H])([2H])NC(=O)c1nnc(NC(=O)C2CC2)cc1Nc1nccc2c1N(C)Cc1sc(C)nc1-2 [Compound 36, 6-(cyclopropanecarboxamido)-4-((2,5-dimethyl-4,5-dihydrothiazolo[5,4-c][1,7]naphthyridin-6-yl)amino)-N-(methyl-d3)pyridazine-3-carboxamide] | 300 to 1000 | 30 to 300
< 30 |  | [2H]C([2H])([2H])NC(=O)c1nnc(NC(=O)C2CC2)cc1Nc1cccc2c1N(C)Cc1nc(C)oc1-2 [Compound 22, 6-(cyclopropanecarboxamido)-4-((2,5-dimethyl-4,5-dihydrooxazolo[4,5-c]quinolin-6-yl)amino)-N-(methyl-d3)pyridazine-3-carboxamide] | 300 to 1000 | 
